Experimental data as given in patent US5763430A, “Method of treating a viral infection by administering a steroid compound” (priority 1995, dated 1998).
≈ marks a conversion by molar mass, not a printed value. Like-named read-outs stand apart in the source and are kept apart here.

Key:
[1] = system: E. coli; experiment: antibiotic activity (MIC); assay type: cell-based; conditions: Escherichia coli; E. coli; read-out: MIC
Description: (§1) Thus, it is possible to achieve an antimicrobial steroid with or without squalamine-like pharmacological activity.

[2] = system: S. aureus; experiment: antibiotic activity (MIC); assay type: cell-based; conditions: Staphylococcus aureus; S. aureus; read-out: MIC
Description: as §1

[3] = system: C. albicans; experiment: antibiotic activity (MIC); assay type: cell-based; conditions: Candida albicans
Description: as §1

[4] = system: P. aerug; experiment: antibiotic activity (MIC); assay type: cell-based
Description: as §1

[5] = system: stage 59-60 Xenopus tadpole; experiment: Xenopus tadpole assay; conditions: in vivo
[6] = system: human microvascular cells; experiment: inhibition of endothelial cell cord formation in vitro; assay type: cell-based; as to effect on endothelial cord formation: key: +: Inhibition of angiogenesis; -: No inhibition of angiogenesis; Toxic; *: cell rounding @ 10 µg/ml
Description: Endothelial cells have the capacity in vitro to form tubular aggregates resembling capillaries in various early stages of formation. This conversion occurs under relatively specific conditions, in which essential growth factors along with an effective substratum are provided. It has been shown that both the interaction of growth factors with the endothelial cell and its attachment to a substratum activate the NHE. The activation of this exchanger is believed to be required for subsequent morphologic transformation of the endothelial cell into a multicellular tubular structure.
To assess the effect of compounds on the cord-like structures formed by human microvascular cells when plated in the presence of VEGF (Vascular Endothelial Growth Factor) and basic fibroblast growth factor on a collagen matrix, a standard cord formation assay was used.

## COC(=O)CC[C@@H](C)[C@H]1CC[C@H]2[C@@H]3[C@H](O)C[C@H]4C[C@@H](NCCCNCCCCNCCCN)CC[C@]4(C)[C@H]3CC[C@]12C [Compound 396]
[1]
  MIC: 64 µg/mL (≈ 108 µM)
[2]
  MIC: 2 to 4 µg/mL (≈ 3.38 to 6.77 µM)
[3]; C. albicans, read-out: MIC
  MIC: 16 µg/mL (≈ 27.1 µM)
[4]; P. aerug, read-out: MIC
  MIC: 128 µg/mL (≈ 217 µM)

## C[C@H](CCC(=O)O)[C@H]1CC[C@H]2[C@@H]3[C@H](O)C[C@H]4C[C@@H](NCCCNCCCCNCCCN)CC[C@]4(C)[C@H]3CC[C@]12C [Compound 397]
[1]
  MIC: 32 to 64 µg/mL (≈ 55.5 to 111 µM)
[2]
  MIC: 16 µg/mL (≈ 27.7 µM)
[3]; C. albicans, read-out: MIC
  MIC: 32 µg/mL (≈ 55.5 µM)
[4]; P. aerug, read-out: MIC
  MIC: 16 µg/mL (≈ 27.7 µM)

## COC(=O)CC[C@@H](C)[C@H]1CC[C@H]2[C@@H]3[C@H](O)C[C@@H]4C[C@@H](NCCN)CC[C@]4(C)[C@H]3CC[C@]12C [Compound 409]
[1]
  MIC: 64 µg/mL (≈ 143 µM)
[2]
  MIC: 32 µg/mL (≈ 71.3 µM)
[3]; C. albicans, read-out: MIC
  MIC: 16 µg/mL (≈ 35.7 µM)
[4]; P. aerug, read-out: MIC
  MIC: 128 µg/mL (≈ 285 µM)
[5]
  similarity of pharmacologic activity in tadpole assay: functionally similar to compound 1437

## COC(=O)CC[C@@H](C)[C@H]1CC[C@H]2[C@@H]3[C@H](O)C[C@@H]4C[C@@H](NCCCNCCCCNCCCN)CC[C@]4(C)[C@H]3CC[C@]12C [Compound 411]
[1]
  MIC: 64 µg/mL (≈ 108 µM)
[2]
  MIC: 8 µg/mL (≈ 13.5 µM)
[3]; C. albicans, read-out: MIC
  MIC: 2 µg/mL (≈ 3.38 µM)
[4]; P. aerug, read-out: MIC
  MIC: 64 µg/mL (≈ 108 µM)
[6]; 0.1 μg/ml
  effect on endothelial cord formation: -
[6]; 1.0 μg/ml
  effect on endothelial cord formation: -
[6]; 10.0 μg/ml
  effect on endothelial cord formation: +
[6]; Homo sapiens, Endothelial cell, Table II, read-out: Minimum Effective Concentration, Cord Formation
  minimal effective concentration: 10 µg/mL

## C[C@H](CCC(=O)O)[C@H]1CC[C@H]2[C@@H]3[C@H](O)C[C@@H]4C[C@H](NCCN)CC[C@]4(C)[C@H]3CC[C@]12C [Compound 414]
[1]
  MIC: 64 µg/mL (≈ 147 µM)
[2]
  MIC: 32 µg/mL (≈ 73.6 µM)
[3]; C. albicans, read-out: MIC
  MIC: 64 µg/mL (≈ 147 µM)
[4]; P. aerug, read-out: MIC
  MIC: 64 µg/mL (≈ 147 µM)
[5]
  similarity of pharmacologic activity in tadpole assay: potencies comparable to that of Fraction 1

## COC(=O)CC[C@@H](C)[C@H]1CC[C@H]2[C@@H]3CC[C@@H]4C[C@H](NCCN)CC[C@]4(C)[C@H]3C[C@H](O)[C@]12C [Compound 416]
[1]
  MIC: 8 µg/mL (≈ 17.8 µM)
[2]
  MIC: 8 µg/mL (≈ 17.8 µM)
[3]; C. albicans, read-out: MIC
  MIC: 32 µg/mL (≈ 71.3 µM)
[4]; P. aerug, read-out: MIC
  MIC: 16 to 32 µg/mL (≈ 35.7 to 71.3 µM)
[5]
  similarity of pharmacologic activity in tadpole assay: functionally similar to compound 1437

## C[C@H](CCC(=O)O)[C@H]1CC[C@H]2[C@@H]3CC[C@@H]4C[C@H](NCCN)CC[C@]4(C)[C@H]3C[C@H](O)[C@]12C [Compound 417]
[1]
  MIC: 64 µg/mL (≈ 147 µM)
[2]
  MIC: 16 to 32 µg/mL (≈ 36.8 to 73.6 µM)
[3]; C. albicans, read-out: MIC
  MIC: 32 µg/mL (≈ 73.6 µM)
[4]; P. aerug, read-out: MIC
  MIC: 128 µg/mL (≈ 294 µM)

## COC(=O)CC[C@@H](C)[C@H]1CC[C@H]2[C@@H]3C[C@@H](O)[C@H]4C[C@H](NCCN)CC[C@]4(C)[C@H]3CC[C@]12C [Compound 431]
[1]
  MIC: 32 to 64 µg/mL (≈ 71.3 to 143 µM)
[2]
  MIC: 16 µg/mL (≈ 35.7 µM)
[3]; C. albicans, read-out: MIC
  MIC: 8 µg/mL (≈ 17.8 µM)
[4]; P. aerug, read-out: MIC
  MIC: 128 µg/mL (≈ 285 µM)
[5]
  similarity of pharmacologic activity in tadpole assay: functionally similar to compound 1437

## COC(=O)CC[C@@H](C)[C@H]1CC[C@H]2[C@@H]3CC[C@@H]4C[C@H](NCCCNCCCCNCCCN)CC[C@]4(C)[C@H]3C[C@H](O)[C@]12C [Compound 448]
[1]
  MIC: 16 µg/mL (≈ 27.1 µM)
[2]
  MIC: 2 µg/mL (≈ 3.38 µM)
[3]; C. albicans, read-out: MIC
  MIC: 8 µg/mL (≈ 13.5 µM)
[4]; P. aerug, read-out: MIC
  MIC: 8 µg/mL (≈ 13.5 µM)

## C[C@H](CCC(=O)O)[C@H]1CC[C@H]2[C@@H]3CC[C@@H]4C[C@H](NCCCNCCCCNCCCN)CC[C@]4(C)[C@H]3C[C@H](O)[C@]12C [Compound 449]
[1]
  MIC: 8 to 16 µg/mL (≈ 13.9 to 27.7 µM)
[2]
  MIC: 4 µg/mL (≈ 6.93 µM)
[3]; C. albicans, read-out: MIC
  MIC: 4 µg/mL (≈ 6.93 µM)
[4]; P. aerug, read-out: MIC
  MIC: 4 µg/mL (≈ 6.93 µM)
[6]; 1.0 μg/ml
  effect on endothelial cord formation: -

## C[C@H](CCC(=O)O)[C@H]1CC[C@H]2[C@@H]3C[C@@H](O)[C@H]4C[C@@H](NCCCNCCCCNCCCN)CC[C@]4(C)[C@H]3CC[C@]12C [Compound 467]
[1]
  MIC: 16 µg/mL (≈ 27.7 µM)
[2]
  MIC: 16 µg/mL (≈ 27.7 µM)
[3]; C. albicans, read-out: MIC
  MIC: 4 µg/mL (≈ 6.93 µM)
[4]; P. aerug, read-out: MIC
  MIC: 8 µg/mL (≈ 13.9 µM)
[6]; 1.0 μg/ml
  effect on endothelial cord formation: -
[6]; 10.0 μg/ml
  effect on endothelial cord formation: -

## C=C(C)C(=O)CC[C@@H](C)[C@H]1CC[C@H]2[C@@H]3[C@H](O)C[C@H]4C[C@@H](NCCCNCCCCN)CC[C@]4(C)[C@H]3CC[C@]12C [Compound 1361]
[1]
  MIC: 32 µg/mL (≈ 58.8 µM)
[2]
  MIC: 4 µg/mL (≈ 7.35 µM)
[3]; C. albicans, read-out: MIC
  MIC: 4 µg/mL (≈ 7.35 µM)
[4]; P. aerug, read-out: MIC
  MIC: 128 µg/mL (≈ 235 µM)

## CC(C)CCC[C@@H](C)[C@H]1CC[C@H]2[C@@H]3[C@H](O)C[C@H]4C[C@@H](N)CC[C@]4(C)[C@H]3CC[C@]12C [Compound 1364]
[1]
  MIC: > 256 µg/mL
[2]
  MIC: 2 µg/mL (≈ 4.95 µM)
[3]; C. albicans, read-out: MIC
  MIC: 2 µg/mL (≈ 4.95 µM)
[4]; P. aerug, read-out: MIC
  MIC: > 256 µg/mL

## CO[C@@H]1[C@H](OC(=O)/C=C/C=C/C=C/C=C/C(=O)O)CC[C@]2(CO2)[C@H]1[C@@]1(C)O[C@@H]1CC=C(C)C [Fumagillin, reference compound]
[6]; 0.1 μg/ml
  effect on endothelial cord formation: -
[6]; 10.0 μg/ml
  effect on endothelial cord formation: +

## CC(C)C(O)CC[C@@H](C)[C@H]1CC[C@H]2[C@@H]3[C@H](O)C[C@H]4C[C@@H](NCCCNCCCCN)CC[C@]4(C)[C@H]3CC[C@]12C (stereo partly shown) [MSI-1232]
[1]
  MIC: 32 µg/mL (≈ 58.4 µM)
[2]
  MIC: 4 to 16 µg/mL (≈ 7.3 to 29.2 µM)
[3]; C. albicans, read-out: MIC
  MIC: 64 µg/mL (≈ 117 µM)
[4]; P. aerug, read-out: MIC
  MIC: 128 µg/mL (≈ 234 µM)

## CC(C)C(O)CC[C@@H](C)[C@H]1CC[C@H]2[C@@H]3[C@H](O)C[C@H]4C[C@@H](NCCCNCCCCN(C)C)CC[C@]4(C)[C@H]3CC[C@]12C (stereo partly shown) [MSI-1239A]
[1]
  MIC: 64 µg/mL (≈ 111 µM)
[2]
  MIC: 8 to 16 µg/mL (≈ 13.9 to 27.8 µM)
[3]
  MIC: 64 µg/mL (≈ 111 µM)
[4]
  MIC: 128 µg/mL (≈ 222 µM)
